# According to PubChem BioAssay (NCI):
#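 Protocol summary: plate cells (96-well), add compound at 5 concentrations, incubate 48 h, interpolate endpoints linearly. Here, GI50 denotes the concentration required for 50% inhibition of growth. TGI is the concentration that stops growth completely.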
# Legend:
# Test in all cases: inhibition of tumour cell growth, NCI panel, 48 h
# 786-0 renal = tested on: 786-0 renal
# A498 renal = tested on: A498 renal
# A549 NSCLC = tested on: A549 NSCLC
# ACHN renal = tested on: ACHN renal
# BT-549 breast = tested on: BT-549 breast
# CAKI-1 renal = tested on: CAKI-1 renal
# CCRF-CEM leukemia = tested on: CCRF-CEM leukemia
# COLO 205 colon = tested on: COLO 205 colon
# DU-145 prostate = tested on: DU-145 prostate
# EKVX NSCLC = tested on: EKVX NSCLC
# HCC-2998 colon = tested on: HCC-2998 colon
# HCT-116 colon = tested on: HCT-116 colon
# HCT-15 colon = tested on: HCT-15 colon
# HOP-62 NSCLC = tested on: HOP-62 NSCLC
# HOP-92 NSCLC = tested on: HOP-92 NSCLC
# HS 578T breast = tested on: HS 578T breast
# HT29 colon = tested on: HT29 colon
# IGROV1 ovarian = tested on: IGROV1 ovarian
# KM12 colon = tested on: KM12 colon
# LOX IMVI melanoma = tested on: LOX IMVI melanoma
# M14 melanoma = tested on: M14 melanoma
# MALME-3M melanoma = tested on: MALME-3M melanoma
# MCF7 breast = tested on: MCF7 breast
# MDA-MB-231 breast = tested on: MDA-MB-231 breast
# MDA-MB-435 = tested on: MDA-MB-435
# MOLT-4 leukemia = tested on: MOLT-4 leukemia
# NCI-H226 lung = tested on: NCI-H226 lung
# NCI-H23 lung = tested on: NCI-H23 lung
# NCI-H460 lung = tested on: NCI-H460 lung
# NCI-H522 lung = tested on: NCI-H522 lung
# NCI/ADR-RES ovarian = tested on: NCI/ADR-RES ovarian
# OVCAR-3 ovarian = tested on: OVCAR-3 ovarian
# OVCAR-4 ovarian = tested on: OVCAR-4 ovarian
# OVCAR-5 ovarian = tested on: OVCAR-5 ovarian
# OVCAR-8 ovarian = tested on: OVCAR-8 ovarian
# PC-3 prostate = tested on: PC-3 prostate
# RPMI-8226 leukemia = tested on: RPMI-8226 leukemia
# RXF 393 renal = tested on: RXF 393 renal
# SF-268 CNS = tested on: SF-268 CNS
# SF-295 CNS = tested on: SF-295 CNS
# SF-539 CNS = tested on: SF-539 CNS
# SK-MEL-2 melanoma = tested on: SK-MEL-2 melanoma
# SK-MEL-28 melanoma = tested on: SK-MEL-28 melanoma
# SK-MEL-5 melanoma = tested on: SK-MEL-5 melanoma
# SK-OV-3 ovarian = tested on: SK-OV-3 ovarian
# SN12C renal = tested on: SN12C renal
# SNB-19 CNS = tested on: SNB-19 CNS
# SNB-75 CNS = tested on: SNB-75 CNS
# SR leukemia = tested on: SR leukemia
# SW-620 colon = tested on: SW-620 colon
# T-47D breast = tested on: T-47D breast
# TK-10 renal = tested on: TK-10 renal
# U251 CNS = tested on: U251 CNS
# UACC-257 melanoma = tested on: UACC-257 melanoma
# UACC-62 melanoma = tested on: UACC-62 melanoma
# UO-31 renal = tested on: UO-31 renal
smiles,measurement,setting,value
COc1ccc2c(c1)CCC1C2CC[C@]2(C)/C(=N/OC(=O)Cc3ccccc3)CCC12 (some centres not stated),GI50,786-0 renal,18.3 µM
same,TGI,786-0 renal,33.3 µM
same,GI50,A498 renal,21.6 µM
same,TGI,A498 renal,45.8 µM
same,GI50,A549 NSCLC,19.3 µM
same,TGI,A549 NSCLC,42.7 µM
same,GI50,ACHN renal,16.4 µM
same,TGI,ACHN renal,32 µM
same,GI50,BT-549 breast,24.7 µM
same,TGI,BT-549 breast,49.4 µM
same,GI50,CAKI-1 renal,16 µM
same,TGI,CAKI-1 renal,30.9 µM
same,GI50,CCRF-CEM leukemia,13.6 µM
same,TGI,CCRF-CEM leukemia,49.9 µM
same,GI50,COLO 205 colon,21.7 µM
same,TGI,COLO 205 colon,58.6 µM
same,GI50,DU-145 prostate,28.6 µM
same,TGI,DU-145 prostate,69.2 µM
same,GI50,EKVX NSCLC,19.4 µM
same,TGI,EKVX NSCLC,44.1 µM
same,GI50,HCC-2998 colon,19.8 µM
same,TGI,HCC-2998 colon,35.6 µM
same,GI50,HCT-116 colon,13.4 µM
same,TGI,HCT-116 colon,26.2 µM
same,GI50,HCT-15 colon,18 µM
same,TGI,HCT-15 colon,36.3 µM
same,GI50,HOP-62 NSCLC,17.2 µM
same,TGI,HOP-62 NSCLC,31.6 µM
same,GI50,HOP-92 NSCLC,25.2 µM
same,TGI,HOP-92 NSCLC,81 µM
same,GI50,HS 578T breast,28.6 µM
same,TGI,HS 578T breast,70 µM
same,GI50,HT29 colon,22.6 µM
same,TGI,HT29 colon,> 100 µM
same,GI50,IGROV1 ovarian,14.7 µM
same,TGI,IGROV1 ovarian,29.8 µM
same,GI50,KM12 colon,15 µM
same,TGI,KM12 colon,30.4 µM
same,GI50,LOX IMVI melanoma,18.5 µM
same,TGI,LOX IMVI melanoma,37.2 µM
same,GI50,M14 melanoma,16.8 µM
same,TGI,M14 melanoma,32.9 µM
same,GI50,MALME-3M melanoma,20.7 µM
same,TGI,MALME-3M melanoma,37.4 µM
same,GI50,MCF7 breast,24.7 µM
same,TGI,MCF7 breast,54.5 µM
same,GI50,MDA-MB-231 breast,17.3 µM
same,TGI,MDA-MB-231 breast,38.6 µM
same,GI50,MDA-MB-435,16.7 µM
same,TGI,MDA-MB-435,30.5 µM
same,GI50,MOLT-4 leukemia,17.2 µM
same,TGI,MOLT-4 leukemia,35.8 µM
same,GI50,NCI-H226 lung,18.8 µM
same,TGI,NCI-H226 lung,36.5 µM
same,GI50,NCI-H23 lung,16.2 µM
same,TGI,NCI-H23 lung,32.7 µM
same,GI50,NCI-H460 lung,14.6 µM
same,TGI,NCI-H460 lung,30.4 µM
same,GI50,NCI-H522 lung,12.2 µM
same,TGI,NCI-H522 lung,32.8 µM
same,GI50,NCI/ADR-RES ovarian,20.9 µM
same,TGI,NCI/ADR-RES ovarian,39.8 µM
same,GI50,OVCAR-3 ovarian,15.8 µM
same,TGI,OVCAR-3 ovarian,31 µM
same,GI50,OVCAR-4 ovarian,18.4 µM
same,TGI,OVCAR-4 ovarian,48.5 µM
same,GI50,OVCAR-5 ovarian,46.6 µM
same,TGI,OVCAR-5 ovarian,> 100 µM
same,GI50,OVCAR-8 ovarian,23.2 µM
same,TGI,OVCAR-8 ovarian,57.1 µM
same,GI50,PC-3 prostate,18.5 µM
same,TGI,PC-3 prostate,59.4 µM
same,GI50,RPMI-8226 leukemia,12.4 µM
same,TGI,RPMI-8226 leukemia,52.5 µM
same,GI50,RXF 393 renal,23.3 µM
same,TGI,RXF 393 renal,47.9 µM
same,GI50,SF-268 CNS,18.7 µM
same,TGI,SF-268 CNS,34.4 µM
same,GI50,SF-295 CNS,16.7 µM
same,TGI,SF-295 CNS,33.8 µM
same,GI50,SF-539 CNS,21.4 µM
same,TGI,SF-539 CNS,42.8 µM
same,GI50,SK-MEL-2 melanoma,18.6 µM
same,TGI,SK-MEL-2 melanoma,48.6 µM
same,GI50,SK-MEL-28 melanoma,24.1 µM
same,TGI,SK-MEL-28 melanoma,78.1 µM
same,GI50,SK-MEL-5 melanoma,12.5 µM
same,TGI,SK-MEL-5 melanoma,29.5 µM
same,GI50,SK-OV-3 ovarian,28.7 µM
same,TGI,SK-OV-3 ovarian,72.1 µM
same,GI50,SN12C renal,20.6 µM
same,TGI,SN12C renal,43.6 µM
same,GI50,SNB-19 CNS,18 µM
same,TGI,SNB-19 CNS,36.7 µM
same,GI50,SNB-75 CNS,19.9 µM
same,TGI,SNB-75 CNS,47.7 µM
same,GI50,SR leukemia,14.2 µM
same,TGI,SR leukemia,33.3 µM
same,GI50,SW-620 colon,35.5 µM
same,TGI,SW-620 colon,> 100 µM
same,GI50,T-47D breast,19.5 µM
same,TGI,T-47D breast,52.2 µM
same,GI50,TK-10 renal,37.7 µM
same,TGI,TK-10 renal,97.1 µM
same,GI50,U251 CNS,19.6 µM
same,TGI,U251 CNS,37.4 µM
same,GI50,UACC-257 melanoma,18.7 µM
same,TGI,UACC-257 melanoma,38.4 µM
same,GI50,UACC-62 melanoma,15.3 µM
same,TGI,UACC-62 melanoma,30.9 µM
same,GI50,UO-31 renal,19.2 µM
same,TGI,UO-31 renal,43.8 µM
